Results taken from US20160166556A1, “METHODS OF TREATING PULMONARY HYPERTENSION” (Gilead Sciences, Inc., priority 2014, published 2016).

System: ASK1 pathway (p38 phosphorylation) in the rat RV
Assay: Auranofin model of oxidative stress-induced ASK1 activation in the rat right ventricle (phospho-p38 Western blot)
Type: in vivo, Sprague-Dawley rats
From the text: IP90 was used as a loading control.
In this study, the auranofin model of oxidative stress-induced ASK1 activation was used to determine the effects of ASK1 inhibitor in preventing or inhibiting oxidative stress-induced activation of the ASK1 pathway in the rat RV. ASK1 is normally bound and repressed by the thiol-containing antioxidant protein thioredoxin 1 (Trx1). […] When administered in vivo, auranofin results in ASK1-mediated phosphorylation of p38MAPK, which in turn promotes induction of cytokine/chemokine gene expression.
Rats were then challenged with a single intraperitoneal (ip) injection of auranofin at 30 mg/kg to induce oxidative stress. The levels of phosphorylated p38 in RV lysates were evaluated by Western blot analysis and normalized to IP90.

Compound | auranofin-induced p38 phosphorylation in RV (single oral dose 0.3, 1, 3 or 10 mg/kg, then auranofin 30 mg/kg ip) | normalized level of phosphorylated p38 in RV (p-p38/IP90) (auranofin 30 mg/kg ip alone, mean±SEM, vehicle group 1.0±0.1)
Cc1cc(F)c(C(=O)Nc2cccc(-c3nncn3C(C)C)n2)cc1-n1cnc(C2CC2)c1 [Compound 3, 5-(4-cyclopropyl-1H-imidazol-1-yl)-2-fluoro-N-(6-(4-isopropyl-4H-1,2,4-triazol-3-yl)pyridin-2-yl)-4-methylbenzamide] | dose-dependent reduction | –
CC[PH](CC)(CC)[Au][S][C@@H]1O[C@H](COC(C)=O)[C@@H](OC(C)=O)[C@H](OC(C)=O)[C@H]1OC(C)=O [auranofin, 2,3,4,6-tetra-O-acetyl-1-thio-β-d-glucopyranosato-S-(triethylphosphine) gold] | – | 2.0±0.2
